Laboratory results published in patent US20170176446A1, “Methods for Determining the Oncogenic Condition of Cell, Uses Thereof, and Methods for Treating Cancer” (INSERM (INSTITUT NATIONAL DE LA SANTE ET DE LA RECHERCHE …, priority 2009, published 2017).

Columns and labels:
[1] = test system: TT cells; test: Effect of OCDO on TT tumors implanted in Swiss nude mice; format: in vivo
Procedure: (§1) a) In this example 2, the human medullary thyroid carcinoma cell line TT (American Tissues and Cells Collection) was used. This line is cultured in an F12K medium modified by Kaighn (sold by the company Invitrogen), containing 10% by weight of fetal calf serum and 2.5 ml of a solution of antibiotics (penicillin/streptomycin) at […]. The OCDO tested comes from the company Steraloids. In order to study in vitro the effect of OCDO on cell growth, the TT cells are seeded on to six-well plates (200 000 cells per well) in an F12K medium as defined above. The TT cells are treated every two days either with a solvent (ethanol at 0.1% in PBS phosphate buffer) or with amounts of OCDO in the solvent resulting in concentrations of 0.1, 1, 2.5 or 5 μM. The cells are counted 4 days after seeding. […] At the OCDO concentration of 5 μM, a proliferation induction factor of 1.5 is measured after 4 days of treatment; the induction of proliferation is therefore established in vitro for OCDO concentrations of between 100 nM and 5 μM. […] The animals (5 or 10 mice per group) are monitored regularly in order to measure tumor development. The volume of the tumors is calculated according to the formula L×l^2×0.5, where L is the length and l is the width of the tumor. […]
The animals were euthanized after 75 days of treatment and the tumor and the various organs were removed in order to be analyzed histologically. […]

[2] = test system: T lymphocytes; conditions: concentrations between 1 and 20 μM; cited from earlier work
[3] = test system: NK cell; conditions: concentrations between 1 and 20 μM; cited from earlier work
[4] = test system: IL10; test: IL10 gene expression in THP1 cells treated with OCDO; format: cell-based, human; conditions: 10 μM OCDO, 4 hours
Procedure: (§2) The THP1 cells (human myeloid cell line supplied by ATCC) are cultured with a culture medium of DMEM type (Dulbecco's modified eagle medium) supplemented with 10% of fetal calf serum and a mixture of antibiotics. The THP1 cells are treated with 10 μM of OCDO for 4 hours. The RNAs are extracted according to a conventional procedure. The complementary DNAs are produced, and then used to measure the expression of the genes of interest. The expression of the genes encoding interleukin 12 (IL12) and interleukin 10 (IL10) were studied, these interleukins representing a pair of cytokines with antagonistic properties. IL12 is an immunostimulatory cytokine, whereas IL10 is an immunosuppressive cytokine. The expression ratio of these two cytokines makes it possible to evaluate the immunosuppressor or immunostimulatory potential of the cell and its ability to promote tumor progression or, on the contrary, to slow it down.
(§3) The primers used correspond to the human sequences of IL10 and of IL12 and are the following: […]

[5] = test system: T lymphocytes originating from human serum; conditions: concentrations between 1 and 20 μM; cited from earlier work
[6] = test system: phorbol ester-binding protein; conditions: cited from earlier work
[7] = test system: IL12; test: IL12 gene expression in THP1 cells treated with OCDO; format: cell-based, human; conditions: 10 μM OCDO, 4 hours
Procedure: as §2, §3

[8] = test system: leukocyte; conditions: concentrations between 1 and 20 μM; cited from earlier work
[9] = test system: TT cells; test: Effect of OCDO on TT cell proliferation in vitro; format: cell-based, human; conditions: 5 μM OCDO, 4 days of treatment, versus solvent
Procedure: as §1

[10] = molecular target: T1, ChEH (Mus musculus, UniProt P70245); test: Conversion of [14C]CEα in cells of healthy mouse tissues with or without tamoxifen; format: cell-based; conditions: incubation with tamoxifen
T1 construct: evaluated in cells of various healthy mouse tissues; from tissue; host or cells: cells from various healthy mouse organs
T1 sequence (P70245 whole entry): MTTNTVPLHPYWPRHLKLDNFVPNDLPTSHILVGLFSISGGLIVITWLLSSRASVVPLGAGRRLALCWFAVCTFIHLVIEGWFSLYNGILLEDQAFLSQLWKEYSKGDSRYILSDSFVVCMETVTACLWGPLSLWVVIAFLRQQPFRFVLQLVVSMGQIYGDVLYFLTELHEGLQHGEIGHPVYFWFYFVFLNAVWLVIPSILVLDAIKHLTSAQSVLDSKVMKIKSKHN

[11] = test system: MCF7 cells; test: OCDO production by MCF7 cells incubated with [14C]CE, thin-layer chromatography; format: cell-based, human
Source text: For assays 1 to 5 and in some of the examples given later in this patent application, MCF7 tumor cells, which originate from the American Tissue Culture Collection (ATCC), were used. […] It is desired to study the activity of ChEH in […] cells by silica thin-layer chromatography. The compounds that it is desired to visualize are the CE and CT compounds defined above. In order to visualize the spots corresponding to CE and CT on a chromatography plate, ^14C-labeled CE and CT compounds were synthesized.
In order to be used in assays 1 to 5 which follow, the cells are seeded into 6-well plates at a density of 80 000 cells in a volume of 2 ml. […] After the incubation time desired for the assay, the medium is collected, the cells are washed with cold PBS (phosphate buffer) (2 ml per well) which is pooled with the medium. The cells are then scraped into cold PBS (1 ml for 3 wells); the wells are again rinsed with cold PBS (1 ml for 3 wells). The cell suspension obtained is centrifuged at 1000 rpm for 5 min at 4° C. […] Throughout the rest of this description, the vehicle solvent used is the same as that defined above.
The aqueous and organic radioactivities are counted. The organic phases are brought to dryness under argon. The residue is resuspended in 60 μl of ethanol and then deposited, in a proportion of 20 μl per lane, on to the glass-backed silica plates (Whatman LK-6-DF, 20×20), which are used in the various assays (these plates having been preheated at 100° C. for 1 hour). The migration solvent used is ethyl acetate. The chromatography plates are placed in contact with a “phosphor-screen” plate in a cassette overnight. […] In order to evaluate the more or less dense nature of the spots obtained on the plates, the radioactivity is quantified by densitometry with the “Imagequant”™ computer program.
Generally, in order to establish the percentages of OCDO inhibition from the thin-layer chromatography (TLC) plates obtained as in assay 2, the radioactive metabolites are identified and quantified on the basis of said plates using a europium-sensitive plate of GP Phosphor screen type (GE Healthcare) and a Storm 840 phosphorimagor (GE Healthcare). The proportion of radiolabeled oxysterols is determined on the autoradiogram obtained by densitometry using the Image Quant 5.2 software. The percentage is calculated on the basis of the ratio between the amount of oxysterols quantified divided by the sum of the amounts of oxysterols (CEE+CE+CT+OCDO). Since the CEE (CE ester) originates exclusively from the CE, the percentage CE is calculated on the basis of the ratio (CE+CEE)/(CE+CEE+CT+OCDO).
Assay 2 given above was therefore completed by measuring the amounts of the products present when the MCF7 tumor cells are incubated as indicated in detail in assay 2.
In order to establish that the link that exists between, on the one hand, the ability of various compounds to inhibit OCDO in an MCF7 tumor cell and, on the other hand, their quality as a ChEH inhibitor, is well-founded, the inhibition coefficients Ki for ChEH relating to a certain number of products was calculated and the production of OCDO by MCF7 cells after incubation of the cells with the same products was measured according to the protocol defined in assay 2 of the present patent application.

[12] = test system: OCDO; test: OCDO content of TS/A tumors by GC/MS; format: in vivo, mice; conditions: tamoxifen 10 μM, 100 μl intratumorally once a day
Procedure: 5 volumes (relative to the mass removed) of buffer (50 mM Tris-HCl, 150 mM KCl, pH=7.4) are added. The tumors are ground and the homogenates are centrifuged for 5 minutes at 2500 rpm at 4° C. […] After centrifugation (to separate the phases), the organic phase is recovered. The organic phase is evaporated to dryness and then the residue is taken up with 0.5 ml of chloroform. The organic extracts are filtered on 0.5 ml silica cartridges. The polar sterols are eluted sequentially:
1) 0.5 ml of a hexane/chloroform mixture (1/1), 2) 0.5 ml of chloroform, 3) 0.5 ml of ethyl acetate and methanol.
The ethyl acetate fractions are evaporated, silylated (50 μl 1/1 acetonitrile/BSTFA) and then analyzed by GC/MS (2 μl) according to the conditions described above.

[13] = test system: TS/A cells; test: Tumor size of TS/A tumors implanted in BALB/c mice, intratumoral treatment; format: in vivo; conditions: for Tumor size (% control): tamoxifen 10 μM, 100 μl intratumorally once a day
Procedure: A cell culture of TS/A cells was first performed. These TS/A cells are mouse mammary adenocarcinomas (see Nanni P et al., Clin. Exp. Metastasis, 1983 October-December; 1(4): 373-80). The cells are cultured, at 37° C. under 5% CO2, in a DMEM medium supplemented with 2 g/liter of sodium carbonate, 1.2 mM of glutamine (pH 7.4 at 23° C.), 5% of fetal bovine serum (Gibco) and 2.5 ml of antibiotics per liter of medium (penicillin/streptomycin).
The TS/A cells are recovered with trypsin, washed twice and suspended in PBS buffer. The TS/A cells (approximately 4×10^6 […] cells/0.1 ml) are then injected subcutaneously into the flank of 6-week-old female BALB/c mice (supplied by Charles River). […] The animals (10 mice per group) are monitored regularly for tumor development. The volume of the tumors is calculated according to the following formula: L×l^2×0.5 (L is the length and l is the width of the tumor). The experiment was reproduced twice. The results are given in FIG. 18 (the arrow indicates the beginning of the treatment).

[14] = molecular target: T2, ChEH (Homo sapiens, UniProt Q15125); test: Inhibition of ChEH activity in MCF7 cells (TLC of [14C]CE conversion); format: cell-based; conditions: tamoxifen 0.01-5 μM with [14C]CEα; PBPE 0.01-10 μM with [14C]CEβ
T2 construct: MCF7 tumor cells, which originate from the American Tissue Culture Collection (ATCC), were used; host or cells: MCF7
T2 sequence (Q15125 whole entry): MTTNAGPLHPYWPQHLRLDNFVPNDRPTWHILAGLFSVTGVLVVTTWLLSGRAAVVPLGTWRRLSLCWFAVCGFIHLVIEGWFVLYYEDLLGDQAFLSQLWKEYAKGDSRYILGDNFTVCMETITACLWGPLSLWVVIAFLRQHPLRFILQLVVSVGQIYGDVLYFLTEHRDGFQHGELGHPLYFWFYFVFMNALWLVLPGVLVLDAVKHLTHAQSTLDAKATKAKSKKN
Procedure: For this experiment, an aminoalkyl sterol included in French patent 2 838 741 (and also see: de Medina et al., J Med Chem: 2009, vol. 52, No. 23, p. 7765-7777), having the formula: 6-N-[2-(3H-imidazol-4-yl)ethylamino]cholestane-3β,5α-diol (DDA), was chosen. […]
A thin-layer chromatography was carried out, the plate of which has been reproduced in FIG. 23. On this plate, the incubation is carried out, for lane 1, with [^14C]CE; for lane 2, with [^14C]CT; for lane 3, with the vehicle solvent, which is the same as that used for assays 1 to 5; for lane 4, with [14C]CE and 0.1 μM of the aminoalkyl sterol; and for lane 5, with [^14C]CE and a concentration of 1 μM of the aminoalkyl sterol.

SMILES	tumor volume versus control animals treated with the solvent ([1]; OCDO 50 μg/kg subcutaneously once a day, 5 days out of 7)	invasion of the lymph nodes versus solvent ([1]; OCDO 50 μg/kg, after 75 days of treatment)	cytolytic activity produced by T lymphocytes in mice [2]	NK cell toxicity in mice [3]	expression of the immunosuppressive cytokine IL10 [4]	rosette formation by T lymphocytes [5]	binding to a phorbol ester-binding protein [6]	expression of the cytokine IL12 [7]	leukocyte mobility [8]	proliferation induction factor [9]	formation of CT from [14C]CEα in healthy mouse tissue cells [10]	% OCDO ([11]; MCF7 cells, [14C]CEα, three days, concentration given with each compound, share of labeled oxysterols) [%]	OCDO production by MCF-7 (% control) ([11]; concentration in μM in parentheses after each molecule, control = 100)	OCDO (% control) ([12]; Day 28)	OCDO (% control) ([12]; Day 37)	Tumor size (% control) ([13]; Day 28)	Tumor size (% control) ([13]; Day 37)	tumor mass ([13]; tumor removed on day 28 from one treated animal, control animal tumor 2 g) [g]	inhibition of the ChEH activity (3 days) in MCF7 cells [14]
CC(C)CCC[C@@H](C)[C@H]1CC[C@H]2[C@@H]3CC(=O)[C@@]4(O)C[C@@H](O)CC[C@]4(C)[C@H]3CC[C@]12C [OCDO, 6-oxo-cholestane-3β,5α-diol]	almost three times larger	Twice as much invasion of the lymph nodes	inhibit the cytolytic activity produced by T lymphocytes	induce NK cell toxicity	stimulates the expression	inhibit rosette formation by T lymphocytes	binds to a phorbol ester-binding protein	reduces the expression	inhibit leukocyte mobility	1.5									
CC/C(=C(\c1ccccc1)c1ccc(OCCN(C)C)cc1)c1ccccc1 [Tamoxifen, 2-[4-[(Z)-1,2-di(phenyl)but-1-enyl]phenoxy]-N,N-dimethylethanamine]											the CT compound no longer appears	6.9	<1	19.2 ± 4	8.4 ± 4	73.5 ± 8	46.2 ± 7	1.45	Dose-dependent inhibition
